Source: patent US5912183A, “Peptide inhibitors of mitogenesis and motogenesis” (Pharmacia & Upjohn S.p.A., priority 1993, dated 1999)
pKd: −log10 of the molar value. Residues, ends and D or L forms follow the SMILES beside them.

Tests used:
[1] = system: binding of PI 3-kinase holoenzyme to HGF/SF receptor; experiment: Competition of phosphopeptides with PI 3-kinase holoenzyme (A549 cytosolic extracts) for association with recombinant HGF/SF receptor (PI 3-kinase activity assay); design: species or system human; settings: phosphopeptide 10 μM; A549 cytosolic extracts; FIG. 3
Protocol: FIG. 3. Inhibition of binding of PI 3-kinase holoenzyme to HGF/SF receptor by tyrosine-phosphorylated peptides. The phosphopeptides which efficiently out-competed p85 (FIG. 1) were assayed for the ability to interfere with binding of the PI 3-kinase holoenzyme to the HGF/SF receptor. Cytosolic extracts from three days-starved A549 cells were pre-incubated with each of the phosphopeptides (10 μM) prior to incubation with the immobilized recombinant HGF/SF receptor. The presence of receptor-associated PI 3-kinase in the immunocomplexes was determined by PI 3-kinase activity assay, as described in Materials and Methods of Example 4. The position of the phosphatidylinositol-3-phosphate (PIP) product of the PI 3-kinase reaction is indicated.
In vitro association experiments. Sf9 cells expressing the recombinant HGF/SF receptor (approximately 4×10^6 cells/point) were lysed 36 hours after infection in buffer A (10 mM Tris-HCl buffer pH 7.5, 10% glycerol, 1% Triton X-100, 150 mM NaCl, 5 mM EDTA), supplemented with 0.2 mM phenyl-methylsulfonyl fluoride, 1 μg/ml leupeptin, 0.1 TIU/ml aprotinin and 1 μg/ml pepstatin. […]
The presence of the p85 subunit of the PI 3-kinase in the receptor immunoprecipitate was determined by: i) labelling of the receptor and associated proteins with [γ-^32 P]ATP by in vitro kinase assay; ii) Western immunoblotting; iii) PI 3-kinase activity assay. […]

[2] = target: T1, binding of p85 to HGF/SF receptor (Bos taurus, UniProt P23727); experiment: Competition of phosphopeptides with p85 for association with immobilized recombinant HGF/SF receptor (in vitro kinase assay readout); design: species or system human
T1 construct: made in house; host or cells: Sf9 insect cells (baculovirus), for both p85 and the receptor
Protocol: FIG. 1. Inhibition of binding of p85 to HGF/SF receptor by tyrosine-phosphorylated peptides. Recombinant HGF/SF receptor was purified by immunoprecipitation from baculovirus-infected Sf9 cells using a rabbit polyclonal antiserum and phosphorylated with cold ATP. Lysates of Sf9 cells expressing p85 were pre-incubated with each of the phosphopeptides (10 μM). The lysates were then allowed to associate with immobilized recombinant HGF/SF receptors. Following association the complex was washed and receptor-bound p85 was detected by an in vitro kinase assay, as described in Materials and Methods of Example 4. The phosphopeptides are identified by the number of the amino terminal tyrosine.
FIG. 2. Inhibition of binding of p85 to HGF/SF receptor with different concentrations of tyrosine-phosphorylated peptides. The phosphopeptides which efficiently out-competed p85 binding to the HGF/SF receptor (FIG. 1) were used at increasing concentrations (10 nM, 100 nM, 1 μM from left to right) to define their relative affinities for p85. Conditions of the experiment were as in FIG. 1. Phosphopeptide 1365 was used as a negative control for p85 interaction.
In vitro association experiments. Sf9 cells expressing the recombinant HGF/SF receptor (approximately 4×10^6 cells/point) were lysed 36 hours after infection in buffer A (10 mM Tris-HCl buffer pH 7.5, 10% glycerol, 1% Triton X-100, 150 mM NaCl, 5 mM EDTA), supplemented with 0.2 mM phenyl-methylsulfonyl fluoride, 1 μg/ml leupeptin, 0.1 TIU/ml aprotinin and 1 μg/ml pepstatin. Lysates were clarified at 15,000×g at 4° C. for 15 minutes and the supernatants immunoprecipitated after 2 hours incubation with anti-Met antibodies coupled to Protein A-Sepharose. Immunocomplexes were washed three times with buffer A, once with buffer B (10 mM Tris-HCl pH 7.4, 100 mM NaCl, 1 mM EDTA) and once with buffer C (25 mM 4-(2-hydroxyethyl)-1-piperazine-ethanesulfonic acid (HEPES) buffer pH 7.2, 100 mM NaCl, 5 mM MgCl2). Samples were pre-phosphorylated by incubation for 15 minutes at 25° C. in buffer C with 10 μM unlabelled ATP and then washed three times with cold buffer A supplemented with 1 mM sodium ortho-vanadate. Association between the immobilized receptor and the baculovirus-expressed p85 was carried out as previously described (Bardelli, A., et al., Oncogene 7: 1973-1978 (1992)). For the association experiments with the PI 3-kinase holoenzyme three days serum-starved A549 cells (approx. 2×10^6 cells/point) were used as a source of PI 3-kinase. A549 cells were Dounce-homogenized in MOPS buffer (20 mM 3-(N-morpholino)propanesulfonic acid) (pH 7.5), 1 mM MgCl2, 0.1 mM EDTA, 200 mM sucrose, 1 mM sodium ortho-vanadate), supplemented with 0.2 mM phenylmethylsulfonyl fluoride, 1 μg/ml leupeptin, 0.1 TIU/ml aprotinin and 1 μg/ml pepstatin. Homogenates were centrifuged at 100,000×g for 20 minutes at 4° C. When checking for the ability of phosphopeptides to block the association with the receptor, cell lysates were pre-incubated with the phosphopeptides for 1 hour at 4° C. prior to incubation with the immobilized recombinant HGF/SF receptor. Following association, immunocomplexes were washed three times with buffer A, twice with buffer D (0.5M LiCl, 100 mM Tris-HCl pH 7.6), and twice with buffer B.
The presence of the p85 subunit of the PI 3-kinase in the receptor immunoprecipitate was determined by: i) labelling of the receptor and associated proteins with [γ-^32 P]ATP by in vitro kinase assay; ii) Western immunoblotting; iii) PI 3-kinase activity assay.
In vitro kinase assay. Receptor-associated proteins were labelled in 20 μl of buffer C, in the presence of 10 μCi [γ-^32 P]ATP (specific activity 7,000 Ci/Mm; Amersham) at 25° C. for 15 minutes. The reaction was stopped by adding 1 ml of ice-cold Buffer A without protease inhibitors. Samples were washed three times with cold buffer A. The labelled immunocomplexes were eluted from Protein A-Sepharose in boiling Laemmli buffer. […]

Grb2 SH2 domain = target: T2, Grb2 SH2 domain (Homo sapiens, UniProt P62993); experiment: BIAcore real-time binding of Grb2 GST-SH2 fusion protein to immobilized phosphopeptide
T2 construct: corresponding to its SH2 domain (from nucleotide position 256 to nucleotide position 551); made in house; host or cells: bacteria (pGEX-2T)
Protocol: FIG. 15. The Grb2 SH2 domain binds to the Y^317 docking site of Shc. Panel A: sensorgrams obtained by injection of a range of Gst-SH2.Grb2 concentrations over the immobilised phosphopeptide derived from the Shc sequence DDPSY^317 VNVQ (SEQ. ID NO: 27). Panel B: effect of competing peptide on the dissociation rate. At the end of the Grb2 injection, buffer or […] of non-biotinylated phosphopeptide were injected. Panel C: analysis of the data shown in panel A. The figure on the left is a plot of the rate of binding versus the relative response for the six different sensorgrams. In the figure on the right, the slopes of each line are plotted against the concentration: the new slope gives the value of the association rate constant.
In vitro binding studies using GST-fusion protein. The region of the Grb2 cDNA corresponding to its SH2 domain (from nucleotide position 256 to nucleotide position 551) was isolated using polymerase chain reaction (PCR) and cloned into the BamHI-EcoRI sites of the bacterial expression plasmid pGEX-2T (GST-Grb2). Cultures of bacteria expressing GST, GST-Grb2 or GST-Shc (Segatto et al., Oncogene 2105-2112 (1993)) were grown for 3-4 hours at 37° C. in LB medium containing 1 mM IPTG. […] Protein complexes were washed 5 times in ice cold PY buffer, eluted and denatured by heating at 95° C. for 3 min in Laemmli buffer, resolved on SDS-PAGE and analyzed by immunoblot.
The basic principles of operation as well as the methodology for obtaining kinetic measurements of SH2 domain interactions using the BIAcore instrument (Pharmacia) have been previously described in detail (Panayotou et al., Mol. Cell. Biol. 13: 3567-3576 (1993), Ponzetto et al., Mol. Cell. Biol. 13: 4600-4608 (1993)). […] Association was measured over a range of protein concentrations and dissociation of bound material was allowed to occur either in buffer flow or upon injection of 20 μM competing, non-biotinylated phosphopetide. Peptide and protein concentrations were calculated by amino acid analysis on an Applied Biosystem amino acid analyzer. […]

GST-SH2 domain of Shc = target: T3, GST-SH2 domain of Shc (Homo sapiens, UniProt P29353); experiment: BIAcore binding of Shc SH2 domain to immobilised phosphopeptides; settings: biosensor; avidin-immobilized biotinylated phosphopeptide
T3 construct: using the Shc SH2 domain, expressed in bacteria as a GST-fusion protein; made in house; host or cells: bacteria
T3 sequence (P29353 488-579 limits assumed): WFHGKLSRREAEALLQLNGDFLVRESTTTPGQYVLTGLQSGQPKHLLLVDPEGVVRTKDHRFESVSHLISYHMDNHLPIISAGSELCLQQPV
Protocol: FIG. 13. […] The same concentration of Shc-SH2 was injected over two biosensor surfaces on which two phosphopeptides had been immobilised. Y1356P is derived from the sequence VNATY^1356 VNVK (SEQ. ID NO: 28) of the receptor tail; Y317P is derived from the sequence DDPSY^317 VNVQ (SEQ. ID NO: 27). Note that both peptides contain the same core (YVNV) but (SEQ. ID NO: 3) different upstream sequences. The initial rapid increase in the response is due to the "bulk effect" of the injected solution.
In vitro binding studies using GST-fusion protein. The region of the Grb2 cDNA corresponding to its SH2 domain (from nucleotide position 256 to nucleotide position 551) was isolated using polymerase chain reaction (PCR) and cloned into the BamHI-EcoRI sites of the bacterial expression plasmid pGEX-2T (GST-Grb2). Cultures of bacteria expressing GST, GST-Grb2 or GST-Shc (Segatto et al., Oncogene 2105-2112 (1993)) were grown for 3-4 hours at 37° C. in LB medium containing 1 mM IPTG. Bacteria were centrifuged, resuspended in 1/100 volume of ice-cold PY buffer, without Triton™ and lysed by sonication. After adding Triton X-100 to 1%, lysates were clarified by centrifugation. Recombinant proteins were purified onto glutathione Sepharose™ (Pharmacia) and used as such for binding assays. For each reaction, about 5 μg of GST, GST-Grb2 or GST-Shc bound to glutathione Seharose was incubated for 2 hrs. at 4° C. with […] of appropriate cell lysate made in PY buffer. Protein complexes were washed 5 times in ice cold PY buffer, eluted and denatured by heating at 95° C. for 3 min in Laemmli buffer, resolved on SDS-PAGE and analyzed by immunoblot.
The basic principles of operation as well as the methodology for obtaining kinetic measurements of SH2 domain interactions using the BIAcore instrument (Pharmacia) have been previously described in detail (Panayotou et al., Mol. Cell. Biol. 13: 3567-3576 (1993), Ponzetto et al., Mol. Cell. Biol. 13: 4600-4608 (1993)). Purified GST-SH2 domains or intact proteins were desalted in BIAcore running buffer (20 mM Hepes, pH 7.4, 150 mM NaCl, 3.4 mM EDTA, 0.005% Tween 20 and 4 mM DTT) and injected over avidin-immobilized, biotinylated phosphopeptides. The amount of phosphopeptides immobilized was normalized by measuring the binding of anti-phosphotyrosine antibodies. Association was measured over a range of protein concentrations and dissociation of bound material was allowed to occur either in buffer flow or upon injection of 20 μM competing, non-biotinylated phosphopetide. Peptide and protein concentrations were calculated by amino acid analysis on an Applied Biosystem amino acid analyzer.
The direct interaction between the SH2 domain of Shc and phosphotyrosine Y^1349 or Y^1356 was confirmed by real-time Biosensor analysis (Panayotou et al., ibid; Felder et al., Mol. Cell. Biol. 13: 1449-1455 (1993)).
The Shc sequence Y^317 VNV (SEQ. ID NO: 3) is identical to one of the two Shc binding sites present in the SF/HGF receptor (FIG. 8). […] The biosensor was used to compare binding of the Shc SH2 domain to the phosphopeptide DDPSY^317 VNVQ (SEQ. ID NO: 27), present on the Shc molecule, and to the phosphopeptide VNATY^1356 VNVK (SEQ. ID NO: 28), present on the SF/HGF receptor. […] Thus Shc-Shc association is not favoured in vivo, and the Shc phosphotyrosine residue Y^317 is available to bind other molecules, rather than to mediate the formation of concatamers.

T2 sequence (P62993 60-152 limits assumed): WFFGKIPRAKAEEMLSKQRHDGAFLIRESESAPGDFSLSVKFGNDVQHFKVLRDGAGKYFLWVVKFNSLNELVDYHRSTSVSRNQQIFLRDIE
T1 sequence (P23727 whole entry): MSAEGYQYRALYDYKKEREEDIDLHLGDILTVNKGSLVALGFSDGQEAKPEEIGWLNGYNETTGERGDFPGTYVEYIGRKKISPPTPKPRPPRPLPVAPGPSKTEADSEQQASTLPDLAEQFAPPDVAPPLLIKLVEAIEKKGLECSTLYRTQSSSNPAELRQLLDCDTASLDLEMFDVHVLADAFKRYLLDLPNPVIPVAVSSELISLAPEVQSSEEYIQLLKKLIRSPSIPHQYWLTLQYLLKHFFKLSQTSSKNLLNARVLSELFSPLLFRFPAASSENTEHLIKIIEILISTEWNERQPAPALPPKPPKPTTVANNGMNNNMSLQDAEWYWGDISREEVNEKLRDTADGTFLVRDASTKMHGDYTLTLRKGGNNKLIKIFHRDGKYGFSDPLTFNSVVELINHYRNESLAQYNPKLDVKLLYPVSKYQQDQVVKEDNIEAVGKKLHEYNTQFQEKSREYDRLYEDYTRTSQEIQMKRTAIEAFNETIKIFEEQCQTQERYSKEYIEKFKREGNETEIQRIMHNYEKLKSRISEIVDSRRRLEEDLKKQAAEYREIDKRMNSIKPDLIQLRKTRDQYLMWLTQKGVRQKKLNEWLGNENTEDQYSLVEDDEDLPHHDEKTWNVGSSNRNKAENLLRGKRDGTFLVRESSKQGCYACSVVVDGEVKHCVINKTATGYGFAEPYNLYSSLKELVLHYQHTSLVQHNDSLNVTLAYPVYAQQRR

SMILES	Interference with binding of PI 3-kinase holoenzyme to HGF/SF receptor [1]	Inhibition of binding of p85 to HGF/SF receptor ([2]; phosphopeptide 10 μM, p85 from Sf9 lysates, FIG. 1)	Efficiency at outcompeting p85 (relative affinity for p85) ([2]; phosphopeptides at 10 nM, 100 nM, 1 μM, FIG. 2, rank order SEQ. ID NO: 19, then 22, 20, 18)	kon (Grb2 SH2 domain; Grb2 GST-SH2 over immobilized phosphopeptide, read-out: K^ass (association rate constant)) [M⁻¹ s⁻¹]	pKd (Grb2 SH2 domain; from Kdiss and K^ass, read-out: Overall affinity)	Kdiss (dissociation rate) (Grb2 SH2 domain; measured in buffer and in the presence of competing phosphopeptide to prevent re-binding) [S^-1]	Binding of Shc SH2 domain to immobilised phosphopeptide (GST-SH2 domain of Shc)
CC(C)[C@H](NC(=O)[C@H](CC(N)=O)NC(=O)[C@@H](NC(=O)[C@H](Cc1ccc(OP(=O)(O)O)cc1)NC(=O)[C@@H](NC(=O)[C@H](C)NC(=O)[C@H](CC(N)=O)NC(=O)[C@@H](NC(=O)[C@H](Cc1c[nH]cn1)NC(=O)[C@@H](NC(=O)[C@@H](N)Cc1ccc(OP(=O)(O)O)cc1)C(C)C)C(C)C)[C@@H](C)O)C(C)C)C(=O)N[C@@H](CCCCN)C(=O)O [H-Tyr*-Val-His-Val-Asn-Ala-Thr-Tyr*-Val-Asn-Val-Lys-OH] (HELM PEPTIDE1{[N[C@@H](Cc1ccc(OP(=O)(O)O)cc1)C(=O)[*:2]].V.H.V.N.A.T.[O=C([C@H](Cc1ccc(OP(=O)(O)O)cc1)N[*:1])[*:2]].V.N.V.K}$$$$V2.0)	more efficient at displacing the PI 3-kinase holoenzyme from the HGF/SF receptor than those including just one of these residues	completely prevented p85 binding	comparable to H-Tyr*-Val-Asn-Val-Lys-Cys-Val-Ala-OH	–	–	–	–
CC(C)[C@H](NC(=O)[C@H](CC(N)=O)NC(=O)[C@@H](NC(=O)[C@H](Cc1ccc(OP(=O)(O)O)cc1)NC(=O)[C@H](CO)NC(=O)[C@@H]1CCCN1C(=O)[C@H](CC(=O)O)NC(=O)[C@@H](N)CC(=O)O)C(C)C)C(=O)N[C@@H](CCC(N)=O)C(=O)O [DDPSY^317* VNVQ, H-Asp-Asp-Pro-Ser-Tyr*-Val-Asn-Val-Gln-OH] (HELM PEPTIDE1{D.D.P.S.[O=C([C@H](Cc1ccc(OP(=O)(O)O)cc1)N[*:1])[*:2]].V.N.V.Q}$$$$V2.0)	–	–	–	260000	6.82	0.04	much more weakly
